Experiment: Stability of the formulation remaining in terminated devices (purity, remaining concentration, mass balance by HPLC)
Format: physicochemical
Conditions: over 77 days; starting purity of semaglutide as received 94%
From the text: Each trace in the figure represents a separate measurement of a separate vial. At the end of the time period devices were terminated, disassembled and the internal compositions measured.
The mass balance numbers indicate that no appreciable amount of drug was lost in the form of degradants undetectable by HPLC, such a fibrils.
[…] Purities were […].

Substance: semaglutide
- total loss in purity: 7-8%

— patent publication US20260207711A1, “FORMULATIONS, DEVICES AND METHODS FOR A GLP-1 AGONIST” (Nano Precision Medical, Inc., priority 2023, published 2026)
